Laboratory results reported in patent US20250177425A1, “SAIKOSAPONIN C AS COMPOSITION FOR TREATING OR PREVENTING AGE-RELATED VASCULAR DISEASES INCLUDING ARTERIOSCLEROSIS” (AGINGTARGET, INC., priority 2022, published 2025).

What was measured:
Format in all cases: cell-based, human
HUVEC = test: Mechanism study: SA-β-gal staining with NOS and Sirt1 inhibitors; conditions: Saikosaponin C 20 μM, 33 mM high glucose 72 hours
Experimental: (§1) Similar to Experimental Example 1, a high-fat diet evaluation system at the cellular level was established. Specifically, […], which are vascular endothelial cells, were pretreated with Saikosaponin C at a concentration of 20 μM for 2 hours, and then treated with high glucose at a concentration of 33 mM for 72 hours (for SA-β-gal staining) or 36 hours (for the analysis of enzyme activity of NOS and Sirt1). Then, SA-β-gal staining, NOS enzyme activity, and Sirt1 enzyme activity were analyzed. To analyze whether or not NOS and Sirt1 protein are involved in the anti-vascular aging effect of Saikosaponin C and the relationship between NOS and Sirt1 protein, L-NG-nitro arginine methyl ester (L-NAME) (5 mM), an inhibitor of NOS, and EX-527 (10 μM), an inhibitor of Sirt1 protein, were used. […] The senescence of vascular endothelial cells was assessed through intracellular SA-β-gal staining (FIG. 8A). The activities of NOS (FIG. 8B) and Sirt1 protein (FIG. 8C) were measured using the NOS Activity Assay Kit and the Sirt1 Activity Assay Kit, respectively.

NOS in HUVEC = test: Mechanism study: NOS Activity Assay Kit with NOS and Sirt1 inhibitors; conditions: Saikosaponin C 20 μM, 33 mM high glucose 36 hours
Experimental: as §1

Sirt1 in HUVEC = test: Mechanism study: Sirt1 Activity Assay Kit with NOS inhibitor; conditions: L-NAME 5 mM, Saikosaponin C 20 μM, 33 mM high glucose 36 hours
Experimental: as §1

Row | SMILES | anti-vascular aging effect of Saikosaponin C (SA-β-gal) after inhibitor pretreatment (HUVEC; EX-527 10 μM) | Saikosaponin C-mediated recovery of the reduction in NOS activity caused by high glucose (NOS in HUVEC; EX-527 10 μM) | anti-vascular aging effect of Saikosaponin C (SA-β-gal) after inhibitor pretreatment (HUVEC; L-NAME 5 mM) | Saikosaponin C-mediated recovery of the reduction in NOS activity caused by high glucose (NOS in HUVEC; L-NAME 5 mM) | Saikosaponin C-mediated recovery of the reduction in Sirt1 activity caused by high glucose (Sirt1 in HUVEC)
1 | NC(=O)C1CCCc2c1[nH]c1ccc(Cl)cc21 (centres unmarked) [EX-527] | significantly abolished | abolished | – | – | –
2 | COC(=O)[C@@H](N)CCCNC(=N)N[N+](=O)[O-] [L-NAME, L-NG-nitro arginine methyl ester] | – | – | significantly abolished | abolished | did not abolish
